Test: Glucose affinity of macrocycles by fluorescence titration
Type: binding
Conditions: pH 7.4, 10 mM phosphate buffer
Protocol: The optic properties (fluorescence) of the given macrocycle changes between the unbound state, and the glucose-bound state. Titrating the macrocycle with glucose in the relevant glucose concentration range, and measuring the changes in fluorescence of the system can thus give binding curves for binding to glucose, which can be used to determine the glucose binding constant, Ka (and the displacement constant, Kd).
All solutions were maintained at pH 7.4 using 10 mM Phosphate buffer solution. The titration was performed using a Horiba Scientific Duetta fluorescence spectrometer with an excitation wavelength of 310 nm and monitoring emission from 320-550 nm. The excitation and emission slit width/band widths were set to 5 nm. All points were acquired using a 0.5 second integration time and 5 accumulations.
2 mg of compound 6d (Mw=3540 g/mol) was dissolved in […] of ultrapure H2O (pH 7.4, 10 mM PB). The purity of Compound 6d was previously assayed by 1H NMR spectroscopy using a known concentration of DMF in D2O as an internal standard. The purity was calibrated at 80% (40 μM). This was then diluted by a four-fold to give a 10 μM solution of Compound 6d.
D-glucose (180.16 mg) was dissolved in 1 mL 10 mM PB and allowed to stand overnight to allow for equilibration of the a and 13 anomers. This was sequentially diluted to give a 20 mM stock solution of D-glucose. 250 μL of this solution was combined with 250 μL Compound 6d stock solution to give a 10 mM D-glucose/5 μM Compound 6d.
In a 3 mL cuvette, 1500 μL of Solution 1 was diluted with 1500 μL of 10 mM phosphate buffer to give a 5 μM solution. This was titrated with Solution 2. For each addition of titrant solution (Solution 2), the equivalent volume was removed from the cuvette prior to addition to keep the cell volume constant (3000 μL). Each addition was stirred for 1 minute then stirring stopped to allow 1 minute for the sample to equilibrate before acquisition. Additions (in μL): 0, 10, 10, 10, 10, 10, 20, 20, 50, 100, 100.

Structure (SMILES) | Kd (glucose), calculated as 1/Ka (D-glucose titration) [µM] | Calculated Ka (glucose binding constant, 1:1 binding model) (D-glucose titration, 5 μM macrocycle, excitation 310 nm) [M⁻¹] | Kd (measured similarly to compound 6d) [µM]
CCc1c2c(CC)c3c(CC)c1CNC(=O)Nc1ccc(C(=O)NC(CCC(=O)NC(CCC(=O)O)(CCC(=O)O)CCC(=O)O)(CCC(=O)NC(CCC(=O)O)(CCC(=O)O)CCC(=O)O)CCC(=O)NC(CCC(=O)O)(CCC(=O)O)CCC(=O)O)cc1NC(=O)NCc1c(CC)c(c(CC)c(c1CC)CNC(=O)Nc1cc(C(=O)NC(CCC(=O)NC(CCC(=O)O)(CCC(=O)O)CCC(=O)O)(CCC(=O)NC(CCC(=O)O)(CCC(=O)O)CCC(=O)O)CCC(=O)NC(CCC(=O)O)(CCC(=O)O)CCC(=O)O)ccc1NC(=O)NC3)CNC(=O)Nc1cc(C(=O)NCCOCCOCCOCCN=[N+]=[N-])ccc1NC(=O)NC2 [compound 6d] | 68 | 14751.48 ± 637.3 | 
CCc1c2c(CC)c3c(CC)c1CNC(=O)Nc1ccc(C(=O)NC(CCC(=O)O)(CCC(=O)O)CCC(=O)O)cc1NC(=O)NCc1c(CC)c(c(CC)c(c1CC)CNC(=O)Nc1cc(C(=O)NC(CCC(=O)O)(CCC(=O)O)CCC(=O)O)ccc1NC(=O)NC3)CNC(=O)Nc1cc(C(=O)NCCOCCOCCOCCOCCN=[N+]=[N-])ccc1NC(=O)NC2 [compound 24, G1 Macrocycle PEG5 Azide] |  |  | 131

From US11541122B2, “Glucose sensitive insulins and uses thereof” (Ziylo Limited, priority 2018, dated 2023)
